# Tests used:
# Format in all cases: cell-based
# MRC5 = test: In vitro cytotoxicity; details: MRC5 (human lung fibroblast), triplicate; for inhibition at 10 µM: 10^-5 M in DMSO, read-out: % of cellular growth inhibition; for inhibition at 1 µM: 10^-6 M in DMSO, read-out: % of cellular growth inhibition (converted)
# Experimental: (§1) In vitro cytotoxicity was assayed on three cell lines - KB (human mouth carcinoma), MCR5 (human lung fibroblast) and HCT116 (human colon tumor). Results are presented in table III as % of cellular growth inhibition in presence of 10^-5 M and 10^-6 M of the tested bis-pyrrolic derivatives in DMSO (triplicate).
# [1] = system: KB (human mouth carcinoma); test: In vitro cytotoxicity; details: triplicate; for inhibition at 10 µM: 10^-5 M in DMSO, read-out: % of cellular growth inhibition; for inhibition at 1 µM: 10^-6 M in DMSO, read-out: % of cellular growth inhibition (converted)
# Experimental: as §1
# [2] = system: HCT116 (human colon tumor); test: In vitro cytotoxicity; details: triplicate; for inhibition at 10 µM: HCT-116, 10^-5 M in DMSO, read-out: % of cellular growth inhibition; for inhibition at 1 µM: HCT-116, 10^-6 M in DMSO, read-out: % of cellular growth inhibition (converted)
# Experimental: as §1
# [3] = system: Escherichia coli ATCC 25922; test: MIC determination, microdilution method (CLSI M07-A8); details: ATCC25922; Escherichia coli ATCC 25922; 18 hours incubation; read-out: MIC
# Experimental: (§2) The microdilution method recommended by the Clinical and Laboratory Standard Institute [M07-A8, Vol.29, N°2] was used. The activity of pyrrolic compounds was tested against 29 bacterial strains belonging to 17 different species and 12 different genera (Staphylococcus, Streptococcus, Enterococcus, […], Bacillus, Haetttophilus, Escherichia, Klebsiella, Enterobacter, Serratia, Pseudomonas, and Acinetobacter). Bacterial inocula were prepared in Mueller Hinton broth (MH2, bioMérieux, Marcy L'Etoile, France), supplemented with 10% sheep blood for fastidious species (i.e., Streptococcus pneumoniae and Haemophilus influenzae). They were dispensed in 96 well microtiter plates (5 x 10^5 CFU/mL of final inoculum). Pyrrolic compounds were added to the wells as to obtain two-fold serial concentrations (0.25-64 mg/L). Plates were incubated at 37°C, in 5% CO2 enriched atmosphere for fastidious species only. MICs were read after 18 hours incubation of cultures, and corresponded to the minimum pyrrolic compound concentration that allowed complete visual growth inhibition of bacteria. Drug-free cultures served as growth controls. Cultures receiving gentamicine, ciprofloxacine or cefotaxime served as positive controls.
# [4] = system: Enterobacter cloacae ATCC13047; test: as above; details: Enterobacter cloacae ATCC13047; 18 hours incubation; read-out: MIC
# Experimental: as §2
# [5] = system: Klebsiella pneumoniae ATCC 35657; test: as above; details: ATCC35657; Klebsiella pneumoniae ATCC 35657; 18 hours incubation; read-out: MIC
# Experimental: as §2
# [6] = system: Acinetobacter baumanii ATCC 19606; test: as above; details: Acinetobacter baumannii, ATCC19606; Acinetobacter baumanii ATCC 19606; 18 hours incubation; read-out: MIC
# Experimental: as §2
# [7] = system: Staphylococcus aureus MRSA 252 CNR HT 2006 0436; test: Determination of the minimum bactericidal concentration (MBC), macro-method; details: 18 hours incubation, initial bacterial load 9500000
# Experimental: (§3) The MBC against two different strains of Staphylococcus aureus, one susceptible to methicillin (MSSA 476 CNR HT 2006 0437) and one resistant to methicillin (MRSA 252 CNR HT 2006 0436) obtained from Centre National de Reference des Staphylocoques (Lyon, France) were determined using a macro-method. Sterile tubes were filled with a primary bacterial inoculum prepared in Mueller Hinton broth as above (10^6 CFU/ml of final inoculum) and pyrrolic compounds were added at twofold serial concentrations (0.5-128 mg/L of final concentrations for 3h and 3i and 0.0625-128mg/L of final concentration for 3n). After 18 hours incubation of cultures, ten-fold serial dilutions of the cultures with no visible bacterial growth and of the first tube showing visible bacterial growth were prepared. Then 100µl of each dilution were inoculated to Mueller Hinton agar media for 24-48 hours. CFU counts were then determined and the MBC corresponded to the minimal pyrrolic compound concentration for which 99.9% of more bacterial cells were killed after 18 hours of incubation.
# (§4) However, this reduction was only 1-2 log CFU/ml, and thus MBC could not be determined (tables VI and VII). Table VI: MBC against Staphylococcus aureus MRSA 252 CNR HT 2006 0436
# [8] = system: Staphylococcus aureus MSSA 476 CNR HT 2006 0437; test: as above; details: 18 hours incubation, initial bacterial load 7,70E+05
# Experimental: as §3, §4
Structure (SMILES),inhibition at 10 µM (MRC5) [%],inhibition at 1 µM (MRC5) [%],inhibition at 10 µM [1] [%],inhibition at 1 µM [1] [%],inhibition at 10 µM [2] [%],inhibition at 1 µM [2] [%],MIC [3] [µg/mL],MIC [4] [µg/mL],MIC [5] [µg/mL],MIC [6] [µg/mL],"CFU counts (bacterial load) ([7]; concentration 0,5 mg/L)",CFU counts (bacterial load) ([7]; concentration 1 mg/L),CFU counts (bacterial load) ([7]; concentration 2 mg/L),CFU counts (bacterial load) ([7]; concentration 4 mg/L),CFU counts (bacterial load) ([7]; concentration 8 mg/L),CFU counts (bacterial load) ([7]; concentration 16 mg/L),CFU counts (bacterial load) ([8]; concentration 2 mg/L),CFU counts (bacterial load) ([8]; concentration 4 mg/L),CFU counts (bacterial load) ([8]; concentration 16 mg/L),CFU counts (bacterial load) ([8]; concentration 32 mg/L),also measured
CC(=O)c1c(C)[nH]c(C(c2[nH]c(C)c(C(C)=O)c2C)c2csc3ccccc23)c1C [3i],84 ± 1,0,95 ± 1,0,50 ± 1,10,> 128,> 128,> 128,> 128,"4,70E+07 CFU/ml","5,20E+05 CFU/ml","2,40E+05 CFU/ml","5,60E+05 CFU/ml","2,80E+05 CFU/ml","2,80E+05 CFU/ml","3,55E+06 CFU/ml","2,72E+05 CFU/ml","3,51E+05 CFU/ml","3,41E+05 CFU/ml","CFU counts (bacterial load) ([7]; concentration 32 mg/L): 5,00E+05 CFU/ml; CFU counts (bacterial load) ([7]; concentration 64 mg/L): 4,80E+05 CFU/ml; CFU counts (bacterial load) ([7]; concentration 128 mg/L): 1,00E+06 CFU/ml; CFU counts (bacterial load) ([8]; concentration 0,5 mg/L): 1,46E+08 CFU/ml; CFU counts (bacterial load) ([8]; concentration 1 mg/L): 6,00E+07 CFU/ml; CFU counts (bacterial load) ([8]; concentration 8 mg/L): 3,01E+05 CFU/ml; CFU counts (bacterial load) ([8]; concentration 64 mg/L): 3,21 E+05 CFU/ml; CFU counts (bacterial load) ([8]; concentration 128 mg/L): 1,47E+06 CFU/ml"
CC(=O)c1c(C)[nH]c(C(c2ccc(F)cc2)c2[nH]c(C)c(C(C)=O)c2C)c1C [3g],2 ± 1,–,11 ± 3,–,3 ± 6,–,> 32,> 32,> 32,> 32,–,–,–,–,–,–,–,–,–,–,–
"COC(=O)c1cccc(C(c2[nH]c(C)c(C(C)=O)c2C)c2[nH]c(C)c(C(C)=O)c2C)c1 [3j, Methyl-3-[bis(4-acetyl-3,5-dimethyl-1H-pyrrol-2-yl)methyl]benzoate]",5 ± 1,–,11 ± 3,–,1 ± 3,–,> 32,> 32,> 32,> 32,–,–,–,–,–,–,–,–,–,–,–
CC(=O)c1c(C)[nH]c(C(c2[nH]c(C)c(C(C)=O)c2C)c2csc3ccc(Br)cc23)c1C [3n],96 ± 1,67,100 ± 1,81,83 ± 1,47,–,–,–,–,"2,90E+05 CFU/ml","3,00E+05 CFU/ml","4,20E+05 CFU/ml","4,20E+05 CFU/ml","3,40E+05 CFU/ml","3,80E+05 CFU/ml","2,70E+05 CFU/ml","2,71E+05 CFU/ml","4,41E+05 CFU/ml","4,47E+05 CFU/ml","CFU counts (bacterial load) ([7]; concentration 0,25 mg/L): 2,80E+05 CFU/ml; CFU counts (bacterial load) ([7]; concentration 0,125 mg/L): 1,00E+06 CFU/ml; CFU counts (bacterial load) ([7]; concentration 0,0625 mg/L): 2,90E+07 CFU/ml; CFU counts (bacterial load) ([8]; concentration 0,5 mg/L): 2,78E+05 CFU/ml; CFU counts (bacterial load) ([8]; concentration 0,25 mg/L): 2,10E+06 CFU/ml; CFU counts (bacterial load) ([8]; concentration 1 mg/L): 1,76E+05 CFU/ml; CFU counts (bacterial load) ([8]; concentration 64 mg/L): 4,50E+05 CFU/ml; CFU counts (bacterial load) ([8]; concentration 0,125 mg/L): 8,00E+07 CFU/ml; CFU counts (bacterial load) ([8]; concentration 128 mg/L): 3,50E+05 CFU/ml; CFU counts (bacterial load) ([8]; concentration 0,0625 mg/L): 2,15E+08 CFU/ml"
CC(=O)c1c(C)[nH]c(C(c2ccc(Cl)cc2)c2[nH]c(C)c(C(C)=O)c2C)c1C [3c],9 ± 1,–,27 ± 7,–,17 ± 11,–,> 128,> 128,> 128,> 128,–,–,–,–,–,–,–,–,–,–,–
CC(=O)c1c(C)[nH]c(C(c2[nH]c(C)c(C(C)=O)c2C)c2cccc3ccccc23)c1C [3h],25 ± 4,0,54 ± 4,0,53 ± 2,5,> 128,> 128,> 128,> 128,"2,10E+08 CFU/ml","7,50E+07 CFU/ml","5,60E+05 CFU/ml","5,50E+05 CFU/ml","2,40E+05 CFU/ml","3,20E+05 CFU/ml","1,63E+08 CFU/ml","3,20E+05 CFU/ml","3,20E+05 CFU/ml","3,70E+05 CFU/ml","CFU counts (bacterial load) ([7]; concentration 32 mg/L): 4,20E+05 CFU/ml; CFU counts (bacterial load) ([7]; concentration 64 mg/L): 5,59E+05 CFU/ml; CFU counts (bacterial load) ([7]; concentration 128 mg/L): 6,28E+05 CFU/ml; CFU counts (bacterial load) ([8]; concentration 8 mg/L): 3,34E+05 CFU/ml; CFU counts (bacterial load) ([8]; concentration 64 mg/L): 3,90E+05 CFU/ml; CFU counts (bacterial load) ([8]; concentration 128 mg/L): 4,30E+05 CFU/ml"
CC(=O)c1c(C)[nH]c(C(c2cc3ccccc3s2)c2[nH]c(C)c(C(C)=O)c2C)c1C [3f],0,–,23 ± 3,–,19 ± 4,–,> 128,> 128,> 128,> 128,–,–,–,–,–,–,–,–,–,–,–
CC(=O)c1c(C)[nH]c(C(c2cc3ccccc3o2)c2[nH]c(C)c(C(C)=O)c2C)c1C [3e],7 ± 1,–,2 ± 3,–,24 ± 6,–,> 128,> 128,> 128,> 128,–,–,–,–,–,–,–,–,–,–,–

# — patent EP2812315B1, “PYRROLIC DERIVATIVES, PROCESSES FOR PREPARING THE SAME AND THEIR USES AS A DRUG” (Universite Joseph Fourier, priority 2012, dated 2013)
